From patent publication US20250290117A1, “MOLECULAR PHENOTYPIC ANTIMICROBIAL SUSCEPTIBILITY TESTING” (priority 2024, published 2025)

Key:
Type in all cases: cell-based
[1] = system: pathogens of clinical samples; test: Molecular phenotypic antimicrobial susceptibility test of clinical samples, direct PCR without a separate DNA purification step (Table 6)
Outline: (§1)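 Breakpoint-concentration antimicrobials in Mueller Hinton Broth; inoculum 0.5 McFarland; 12-16 h incubation. Read-out: semi-quantitative PCR, after magnetic-bead DNA purification or direct PCR following lysis buffer in the thermal cycler.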

Escherichia coli = test: Traditional culture-based antimicrobial susceptibility test
Outline: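 Susceptibility of each E. coli isolate to each antimicrobial was determined the standard way: pathogens were grown, isolated and then exposed to the agents.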

[2] = system: pathogens of clinical samples; test: Molecular phenotypic antimicrobial susceptibility test of clinical samples, extraction DNA purification step prior to PCR (Table 6)
Outline: as §1

[3] = E. coli, clinical sample of r10-r24
[4] = E. coli, clinical sample of r158-r172
[5] = K. aerogenes, clinical sample of r136-r150
[6] = K. pneumoniae, clinical sample of r121-r135
[7] = M. morganii, clinical sample of r55-r69
[8] = M. morganii, clinical sample of r70-r84
[9] = P. mirabilis, clinical sample of r25-r39
[10] = P. mirabilis, clinical sample of r40-r54
[11] = S. aureus, clinical sample of r85-r92

Gentamicin
Molecular Antibiotic Susceptibility Result [1, 3]: Sensitive (Antimicrobial wells with pathogen load detected below the control wells (typically >2 cycle thresholds later) may be reported as Sensitive) | Ct ([1]; E. coli, clinical sample of r10-r24, Ct control avg 12.97): 23.559 | Molecular Antibiotic Susceptibility Result [1, 4]: Sensitive (Antimicrobial wells with pathogen load detected below the control wells (typically >2 cycle thresholds later) may be reported as Sensitive) | Ct ([1]; E. coli, clinical sample of r158-r172, Ct control avg 12.894): 28.667 | Molecular Antibiotic Susceptibility Result [1, 5]: Sensitive (Antimicrobial wells with pathogen load detected below the control wells (typically >2 cycle thresholds later) may be reported as Sensitive) | Ct ([1]; K. aerogenes, clinical sample of r136-r150, Ct control avg 13.854): 31.347 | Molecular Antibiotic Susceptibility Result [1, 6]: Sensitive (Antimicrobial wells with pathogen load detected below the control wells (typically >2 cycle thresholds later) may be reported as Sensitive) | Ct ([1]; K. pneumoniae, clinical sample of r121-r135, Ct control avg […]): 23.5 | Molecular Antibiotic Susceptibility Result [1, 7]: Sensitive (Antimicrobial wells with pathogen load detected below the control wells (typically >2 cycle thresholds later) may be reported as Sensitive) | Ct ([1]; M. morganii, clinical sample of r55-r69, Ct control avg 12.09): 32.648 | Molecular Antibiotic Susceptibility Result [1, 8]: Sensitive (Antimicrobial wells with pathogen load detected below the control wells (typically >2 cycle thresholds later) may be reported as Sensitive) | Ct ([1]; M. morganii, clinical sample of r70-r84, Ct control avg 11.677): 30.206 | Molecular Antibiotic Susceptibility Result [1, 9]: Sensitive (Antimicrobial wells with pathogen load detected below the control wells (typically >2 cycle thresholds later) may be reported as Sensitive) | Ct ([1]; P. mirabilis, clinical sample of r25-r39, Ct control avg 11.801): 22.67 | Molecular Antibiotic Susceptibility Result [1, 10]: Sensitive (Antimicrobial wells with pathogen load detected below the control wells (typically >2 cycle thresholds later) may be reported as Sensitive) | Ct ([1]; P. mirabilis, clinical sample of r40-r54, Ct control avg 10.06): 30.321 | Molecular Antibiotic Susceptibility Result [1, 11]: Sensitive (Antimicrobial wells with pathogen load detected below the control wells (typically >2 cycle thresholds later) may be reported as Sensitive) | Ct ([1]; S. aureus, clinical sample of r85-r92, Ct control avg 20.309): 31.422 | Traditional Culture Results (Escherichia coli; E. coli #1 - WDCM 00090 - 6.2×E3): Sensitive | Traditional Culture Results (Escherichia coli; E. coli #2 - WDCM 00090 - 6.2×E3): Sensitive | Traditional Culture Result (Escherichia coli; E. coli isolate 1 (Table 3)): Sensitive | Traditional Culture Result (Escherichia coli; E. coli isolate 2 (Table 3)): Sensitive | Traditional Culture Result (Escherichia coli; E. coli isolate 3 (Table 3)): Sensitive | Traditional Culture Result (Escherichia coli; E. coli isolate 4 (Table 3)): Sensitive | Traditional Culture Result (Escherichia coli; E. coli isolate 5 (Table 3)): Sensitive | Traditional Culture Result (Escherichia coli; E. coli isolate JJ1887): Resistant | Molecular Antibiotic Susceptibility Result [2, 3]: Sensitive (Antimicrobial wells with pathogen load detected below the control wells (typically >2 cycle thresholds later) may be reported as Sensitive) | Ct ([2]; E. coli, clinical sample of r10-r24, Ct Control Avg 18.112): 28.366 | Molecular Antibiotic Susceptibility Result [2, 4]: Sensitive (Antimicrobial wells with pathogen load detected below the control wells (typically >2 cycle thresholds later) may be reported as Sensitive) | Ct ([2]; E. coli, clinical sample of r158-r172, Ct Control Avg 20.146): 32.759 | Molecular Antibiotic Susceptibility Result [2, 5]: Sensitive (Antimicrobial wells with pathogen load detected below the control wells (typically >2 cycle thresholds later) may be reported as Sensitive) | Ct ([2]; K. aerogenes, clinical sample of r136-r150, Ct Control Avg 19.994): 36.1 | Molecular Antibiotic Susceptibility Result [2, 6]: Sensitive (Antimicrobial wells with pathogen load detected below the control wells (typically >2 cycle thresholds later) may be reported as Sensitive) | Ct ([2]; K. pneumoniae, clinical sample of r121-r135, Ct Control Avg 24.272): 44.195 | Molecular Antibiotic Susceptibility Result [2, 7]: Sensitive (Antimicrobial wells with pathogen load detected below the control wells (typically >2 cycle thresholds later) may be reported as Sensitive) | Ct ([2]; M. morganii, clinical sample of r55-r69, Ct Control Avg 28.86): Undet | Molecular Antibiotic Susceptibility Result [2, 8]: Sensitive (Antimicrobial wells with pathogen load detected below the control wells (typically >2 cycle thresholds later) may be reported as Sensitive) | Ct ([2]; M. morganii, clinical sample of r70-r84, Ct Control Avg 27.053): Undet | Molecular Antibiotic Susceptibility Result [2, 9]: Sensitive (Antimicrobial wells with pathogen load detected below the control wells (typically >2 cycle thresholds later) may be reported as Sensitive) | Ct ([2]; P. mirabilis, clinical sample of r25-r39, Ct Control Avg 26.064): 28.953 | Molecular Antibiotic Susceptibility Result [2, 10]: Sensitive (Antimicrobial wells with pathogen load detected below the control wells (typically >2 cycle thresholds later) may be reported as Sensitive) | Ct ([2]; P. mirabilis, clinical sample of r40-r54, Ct Control Avg 26.987): 37.234 | Molecular Antibiotic Susceptibility Result [2, 11]: Sensitive (Antimicrobial wells with pathogen load detected below the control wells (typically >2 cycle thresholds later) may be reported as Sensitive) | Ct ([2]; S. aureus, clinical sample of r85-r92, Ct Control Avg 24.32): Undet
